Some targets named below: PKC-theta (Homo sapiens, UniProt Q04759); FES (Homo sapiens, UniProt P07332); JAK3 (Homo sapiens, UniProt P52333); IRAK1 (Homo sapiens, UniProt P51617).
Test in all cases: ProQinase radiometric kinase panel
Holding throughout (conditions): mean of 2 exp.

Molecules are shown by their SMILES.

Sequence of IRAK1 (P51617 whole entry): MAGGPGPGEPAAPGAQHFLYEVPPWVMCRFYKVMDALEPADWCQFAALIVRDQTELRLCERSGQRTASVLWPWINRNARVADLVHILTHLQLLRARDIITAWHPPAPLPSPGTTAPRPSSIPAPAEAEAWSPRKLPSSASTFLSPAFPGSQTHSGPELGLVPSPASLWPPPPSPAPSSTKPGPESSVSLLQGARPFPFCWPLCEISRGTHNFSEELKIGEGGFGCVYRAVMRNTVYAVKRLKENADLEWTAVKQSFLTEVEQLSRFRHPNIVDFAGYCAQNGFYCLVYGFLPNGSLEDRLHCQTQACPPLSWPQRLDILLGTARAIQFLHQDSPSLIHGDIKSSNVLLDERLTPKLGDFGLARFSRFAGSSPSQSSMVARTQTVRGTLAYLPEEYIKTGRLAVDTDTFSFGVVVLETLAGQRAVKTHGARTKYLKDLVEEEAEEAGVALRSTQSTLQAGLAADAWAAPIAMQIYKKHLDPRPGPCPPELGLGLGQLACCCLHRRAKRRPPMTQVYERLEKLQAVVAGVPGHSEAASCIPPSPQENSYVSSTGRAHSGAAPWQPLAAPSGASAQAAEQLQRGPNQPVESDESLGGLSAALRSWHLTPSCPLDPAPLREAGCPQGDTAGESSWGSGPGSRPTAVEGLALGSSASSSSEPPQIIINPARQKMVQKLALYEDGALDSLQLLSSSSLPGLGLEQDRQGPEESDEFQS
Sequence of JAK3 (P52333 whole entry): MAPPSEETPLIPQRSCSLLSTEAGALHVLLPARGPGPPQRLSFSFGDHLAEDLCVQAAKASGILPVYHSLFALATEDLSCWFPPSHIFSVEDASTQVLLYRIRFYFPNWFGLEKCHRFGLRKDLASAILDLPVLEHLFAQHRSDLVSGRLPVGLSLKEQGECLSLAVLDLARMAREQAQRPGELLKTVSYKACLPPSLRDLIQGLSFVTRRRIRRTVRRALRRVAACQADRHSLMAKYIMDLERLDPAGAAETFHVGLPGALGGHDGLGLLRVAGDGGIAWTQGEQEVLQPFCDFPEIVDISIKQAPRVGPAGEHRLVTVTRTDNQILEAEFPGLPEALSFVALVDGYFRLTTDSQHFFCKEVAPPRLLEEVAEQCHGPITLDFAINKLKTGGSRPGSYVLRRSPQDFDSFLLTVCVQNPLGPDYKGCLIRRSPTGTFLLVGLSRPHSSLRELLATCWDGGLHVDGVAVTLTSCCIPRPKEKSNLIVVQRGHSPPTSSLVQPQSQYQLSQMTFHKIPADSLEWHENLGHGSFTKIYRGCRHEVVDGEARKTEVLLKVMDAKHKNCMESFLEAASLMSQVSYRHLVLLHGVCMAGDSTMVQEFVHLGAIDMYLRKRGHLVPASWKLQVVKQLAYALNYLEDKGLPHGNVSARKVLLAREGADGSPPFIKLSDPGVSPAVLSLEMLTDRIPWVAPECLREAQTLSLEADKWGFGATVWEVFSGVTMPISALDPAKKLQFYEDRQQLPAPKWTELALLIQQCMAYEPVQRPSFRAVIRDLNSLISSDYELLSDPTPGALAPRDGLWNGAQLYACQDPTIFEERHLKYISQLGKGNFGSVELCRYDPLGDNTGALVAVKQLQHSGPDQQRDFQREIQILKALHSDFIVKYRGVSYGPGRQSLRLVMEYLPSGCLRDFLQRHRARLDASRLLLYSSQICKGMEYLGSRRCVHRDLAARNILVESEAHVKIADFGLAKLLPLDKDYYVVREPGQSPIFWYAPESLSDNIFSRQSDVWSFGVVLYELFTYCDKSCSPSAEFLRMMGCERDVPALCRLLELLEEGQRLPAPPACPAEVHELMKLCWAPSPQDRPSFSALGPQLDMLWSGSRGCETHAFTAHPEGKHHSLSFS
Sequence of PKC-theta (Q04759 whole entry): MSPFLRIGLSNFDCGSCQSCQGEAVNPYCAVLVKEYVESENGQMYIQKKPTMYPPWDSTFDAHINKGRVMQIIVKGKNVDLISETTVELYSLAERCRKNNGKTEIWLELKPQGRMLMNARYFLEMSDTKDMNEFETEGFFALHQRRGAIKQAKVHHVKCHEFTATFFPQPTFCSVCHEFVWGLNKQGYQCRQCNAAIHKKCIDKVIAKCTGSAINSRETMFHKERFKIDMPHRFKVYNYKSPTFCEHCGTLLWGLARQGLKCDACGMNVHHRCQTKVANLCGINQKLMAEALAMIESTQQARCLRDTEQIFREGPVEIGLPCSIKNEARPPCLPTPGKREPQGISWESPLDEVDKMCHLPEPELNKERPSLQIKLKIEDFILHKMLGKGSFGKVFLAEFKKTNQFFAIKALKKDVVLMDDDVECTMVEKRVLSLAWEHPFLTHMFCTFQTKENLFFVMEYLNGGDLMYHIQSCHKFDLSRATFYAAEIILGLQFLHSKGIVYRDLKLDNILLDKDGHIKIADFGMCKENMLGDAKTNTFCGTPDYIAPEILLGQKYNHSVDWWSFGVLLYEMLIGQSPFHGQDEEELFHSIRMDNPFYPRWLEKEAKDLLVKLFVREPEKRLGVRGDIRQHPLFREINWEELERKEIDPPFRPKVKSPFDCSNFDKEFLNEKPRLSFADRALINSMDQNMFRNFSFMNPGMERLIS
Sequence of FES (P07332 whole entry): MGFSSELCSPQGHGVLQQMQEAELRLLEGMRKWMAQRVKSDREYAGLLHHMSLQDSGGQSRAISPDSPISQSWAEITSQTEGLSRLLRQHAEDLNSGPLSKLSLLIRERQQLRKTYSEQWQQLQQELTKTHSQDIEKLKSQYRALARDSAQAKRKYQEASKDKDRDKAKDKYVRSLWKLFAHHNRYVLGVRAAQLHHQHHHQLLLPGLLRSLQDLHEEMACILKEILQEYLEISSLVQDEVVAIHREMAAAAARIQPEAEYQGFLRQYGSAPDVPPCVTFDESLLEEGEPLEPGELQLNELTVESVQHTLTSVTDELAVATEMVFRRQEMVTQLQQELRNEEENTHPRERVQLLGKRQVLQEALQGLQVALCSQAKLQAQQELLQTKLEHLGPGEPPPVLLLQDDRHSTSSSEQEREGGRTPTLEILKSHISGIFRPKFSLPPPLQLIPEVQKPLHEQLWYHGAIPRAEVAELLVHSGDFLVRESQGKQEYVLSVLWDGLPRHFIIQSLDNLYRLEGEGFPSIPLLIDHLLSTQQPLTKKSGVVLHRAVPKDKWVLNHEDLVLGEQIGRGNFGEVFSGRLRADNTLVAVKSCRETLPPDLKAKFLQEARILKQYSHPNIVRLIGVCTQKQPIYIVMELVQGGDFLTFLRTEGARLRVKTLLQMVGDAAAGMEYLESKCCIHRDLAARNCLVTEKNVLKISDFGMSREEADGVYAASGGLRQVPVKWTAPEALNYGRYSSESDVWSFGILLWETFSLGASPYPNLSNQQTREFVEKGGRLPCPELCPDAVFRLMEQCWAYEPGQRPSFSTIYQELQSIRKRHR

Regarding `COc1ccc2c3ccnc(Cl)c3n(CC#N)c2c1` [AnnH75], the “residual activity at 1 µM, Mean” value at PKC-theta is 113 % of control; on FES, 93 % of control; on JAK3, 101 % of control; on IRAK1, 95 % of control.

(Values after paper PMC4508061, “Selectivity Profiling and Biological Activity of Novel β-Carbolines as Potent and Selective DYRK1 Kinase Inhibitors” (PLoS ONE, 2015).)
